In patent publication US10280163B2 (BeiGene, Ltd., priority 2015, dated 2019):
pEC50: −log10 of the molar value. Read-outs that look alike come from different tables or passages of the source.

Tests used:
[1] = molecular target: T1, cellular IDO1 in HeLa cells (Homo sapiens, UniProt P14902); test: HeLa cell-based IDO1 Kyn (kynurenine) production assay; settings: IFN-γ 100 ng/mL, 48 hours
T1 construct: endogenous in cells; host or cells: HeLa cells (American Type Tissue Culture Collection), induced with human recombinant IFN-γ
T1 sequence (P14902 whole entry): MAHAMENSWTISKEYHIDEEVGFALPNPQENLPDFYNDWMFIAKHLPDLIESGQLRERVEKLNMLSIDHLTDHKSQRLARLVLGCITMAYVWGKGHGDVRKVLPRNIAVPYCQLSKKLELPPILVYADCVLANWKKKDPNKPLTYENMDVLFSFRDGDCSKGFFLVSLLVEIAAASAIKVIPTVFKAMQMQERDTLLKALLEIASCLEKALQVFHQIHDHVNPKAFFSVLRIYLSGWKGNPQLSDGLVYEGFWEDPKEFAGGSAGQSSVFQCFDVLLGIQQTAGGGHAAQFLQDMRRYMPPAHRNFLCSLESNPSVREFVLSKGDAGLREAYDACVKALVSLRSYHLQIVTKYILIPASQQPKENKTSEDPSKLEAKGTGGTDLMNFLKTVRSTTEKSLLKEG
Procedure, shortened: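 IFN-γ-induced HeLa cells (100 ng/mL) in phenol red-free DMEM with 0.4 mM L-Trp, compounds added together with IFN-γ, 48 h at 37 °C. Supernatant Kyn read at 480 nm after TCA precipitation and 4-(dimethylamino)benzaldehyde reaction. IC50 from four-parameter logistic fit.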

[2] = molecular target: T2, Recombinant TDO (Homo sapiens, UniProt P48775); test: TDO enzymatic assay; format: biochemical; settings: 100 nM TDO, 0.5 mM L-tryptophan, read-out: Enzyme IC50 (nM) TDO
T2 construct: His tag (C); made in house; host or cells: E. coli
T2 sequence (P48775 whole entry): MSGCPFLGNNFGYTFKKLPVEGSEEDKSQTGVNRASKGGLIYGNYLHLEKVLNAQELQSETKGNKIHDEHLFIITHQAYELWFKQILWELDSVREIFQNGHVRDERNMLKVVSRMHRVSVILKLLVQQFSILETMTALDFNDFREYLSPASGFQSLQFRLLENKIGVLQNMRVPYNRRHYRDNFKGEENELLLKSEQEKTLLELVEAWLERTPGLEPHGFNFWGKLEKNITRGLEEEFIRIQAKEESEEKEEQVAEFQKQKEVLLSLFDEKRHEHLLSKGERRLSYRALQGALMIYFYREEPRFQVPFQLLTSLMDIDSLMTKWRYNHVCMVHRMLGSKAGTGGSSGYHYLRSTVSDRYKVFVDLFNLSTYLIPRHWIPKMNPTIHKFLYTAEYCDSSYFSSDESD
Experimental: Recombinant TDO was overexpressed and purified from E. coli cells with a C-terminal His tag. TDO enzymatic assay was performed using the same methodology as IDO1 enzymatic assay except that 100 nM TDO and 0.5 mM L-tryptophan (Km concentration) were used in the TDO assay.

[3] = molecular target: T3, Recombinant IDO1 (Homo sapiens, UniProt P14902); test: IDO1 enzymatic assay; format: biochemical; settings: 50 nM IDO1, 1.3 mM D-tryptophan, read-out: Enzyme IC50 (nM) IDO1
T3 construct: His tag (N); made in house; host or cells: E. coli
T3 sequence (P14902 whole entry): as the sequence (P14902 whole entry) above
Procedure, shortened: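 N-terminally His-tagged enzyme from E. coli (50 nM) was incubated with compound, 1.3 mM D-tryptophan, 5 mM ascorbate, 6.25 μM methylene blue and 0.4 mg/mL catalase in 50 mM potassium phosphate pH 7.5, 0.1% BSA for 1.5 h at 24° C. N′-formylkynurenine formation was followed at 321 nm for 1 h; IC50 from rate slopes.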

[4] = Table 1, 5-substituted imidazo[1,5-a]pyridines
[5] = Table 2, 8-substituted imidazo[1,5-a]pyridines

| pEC50 [1, 4] | IC50 [2, 4] [nM] | IC50 [3, 4] [nM] | pEC50 [1, 5] | IC50 [2, 5] [nM] | IC50 [3, 5] [nM] | SMILES |
| --- | --- | --- | --- | --- | --- | --- |
| 5.11 | 17000 | 10000 | – | – | – | Cc1noc(C)c1-c1ccc2cncn2c1C(O)C1CCCCC1 (stereo not drawn) [Example A140, cyclohexyl(6-(3,5-dimethylisoxazol-4-yl)imidazo[1,5-a]pyridin-5-yl)methanol] |
| 5.50 | 3900 | 51 | – | – | – | OC1CCCCC1C(O)c1c(C2CC2)ccc2cncn12 (stereo not drawn) [Example A141, 2-((6-cyclopropylimidazo[1,5-a]pyridin-5-yl)(hydroxy)methyl)cyclohexan-1-ol] |
| 6.24 | 64000 | 130 | – | – | – | OC1CCC(C(O)c2c(C3CC3)ccc3cncn23)CC1 (stereo not drawn) [Example A142, 4-((6-cyclopropylimidazo[1,5-a]pyridin-5-yl)(hydroxy)methyl)cyclohexan-1-ol] |
| 5.95 | 270 | 15 | – | – | – | OC(c1c(Cl)c(Cl)cc2cncn12)C1CCCCC1 (stereo not drawn) [Example A143, cyclohexyl(6,7-dichloroimidazo[1,5-a]pyridin-5-yl)methanol] |
| 5.91 | 1500 | 32 | – | – | – | OC(CC1CCCCC1)c1c(Cl)c(Cl)cc2cncn12 (stereo not drawn) [Example A144, 2-cyclohexyl-1-(6,7-dichloroimidazo[1,5-a]pyridin-5-yl)ethan-1-ol] |
| 5.90 | 210 | 28 | – | – | – | OC(c1cc(Cl)c(Cl)c2cncn12)C1CCCCC1 (stereo not drawn) [Example A146, cyclohexyl(7,8-dichloroimidazo[1,5-a]pyridin-5-yl)methanol] |
| 5.83 | 420 | 39 | – | – | – | OC(c1c(Cl)c(Br)cc2cncn12)C1CCCCC1 (stereo not drawn) [Example A148, (7-bromo-6-chloroimidazo[1,5-a]pyridin-5-yl)(cyclohexyl)methanol] |
| 5.69 | 160 | 35 | – | – | – | OC(c1c(Cl)c(Br)cc2cncn12)C1CCCC1 (stereo not drawn) [Example A149, (7-bromo-6-chloroimidazo[1,5-a]pyridin-5-yl)(cyclopentyl)methanol] |
| 6.38 | 600 | 39 | – | – | – | OC(c1c(Cl)c(F)cc2cncn12)C1CCCCC1 (stereo not drawn) [Example A151, (6-chloro-7-fluoroimidazo[1,5-a]pyridin-5-yl)(cyclohexyl)methanol] |
| 6.69 | 7400 | 33 | – | – | – | OC(CC1CCCCC1)c1c(Cl)c(F)cc2cncn12 (stereo not drawn) [Example A152, 1-(6-chloro-7-fluoroimidazo[1,5-a]pyridin-5-yl)-2-cyclohexylethan-1-ol] |
| 5.17 | 1800 | 500 | – | – | – | COc1cc(C(O)C2CCCCC2)n2cncc2c1Cl (stereo not drawn) [Example A153, (8-chloro-7-methoxyimidazo[1,5-a]pyridin-5-yl)(cyclohexyl)methanol] |
| 6.18 | 8400 | 430 | – | – | – | OC(c1c(Cl)c(Cl)c(Cl)c2cncn12)C1CCCCC1 (stereo not drawn) [Example A154, cyclohexyl(6,7,8-trichloroimidazo[1,5-a]pyridin-5-yl)methanol] |
| 5.78 | 190 | 48 | – | – | – | OC(c1c(F)c(Cl)cc2cncn12)C1CCCCC1 (stereo not drawn) [Example A156, (7-chloro-6-fluoroimidazo[1,5-a]pyridin-5-yl)(cyclohexyl)methanol] |
| – | – | – | < 5.00 | 630 | 1000 | OC(c1cccn2cncc12)C1CCCCC1 (stereo not drawn) [Example B001, Cyclohexyl(imidazo[1,5-a]pyridin-8-yl)methanol] |
| – | – | – | < 5.00 | 3300 | 330 | OC(CC1CCCCC1)c1cccn2cncc12 (stereo not drawn) [Example B006, 2-Cyclohexyl-1-(imidazo[1,5-a]pyridin-8-yl)ethan-1-ol] |
| – | – | – | < 5.00 | 17000 | 620 | OC(CCC1CCCCC1)c1cccn2cncc12 (stereo not drawn) [Example B008, 3-cyclohexyl-1-(imidazo[1,5-a]pyridin-8-yl)propan-1-ol] |
| – | – | – | < 5.00 | 190 | 170 | Cc1cc(C(O)C2CCCCC2)c2cncn2c1 (stereo not drawn) [Example B011, Cyclohexyl (6-methylimidazo[1,5-a]pyridin-8-yl)methanol] |
